Laboratory results taken from paper PMC8786250, “Comparison of chemical profiles, antioxidation, inhibition of skin extracellular matrix degradation, and anti-tyrosinase activity between mycelium and fruiting body of Cordyceps militaris and Isaria tenuipes” (Pharmaceutical Biology, 2022).
Values after ≈ are worked out from the molar mass of the structure shown.

What was measured:
[1] = target: T1, metalloproteinase-1 (MMP-1) from Clostridium histolyticum (ChC); assay: spectrophotometric MMP-1 (collagenase) inhibition assay; assay type: biochemical, Hathewaya histolytica; conditions: substrate FALGPA; positive control
T1 construct: gene colG; native collagenase preparation (Sigma-Aldrich)
From the text: spectrophotometric MMP-1 (collagenase) inhibition assay on metalloproteinase-1 (MMP-1) from Clostridium histolyticum (ChC)

[2] = target: T2, elastase from porcine pancreas (Sus scrofa, UniProt P00772); assay: spectrophotometric elastase inhibition assay; assay type: biochemical; conditions: read-out: IC50 (mg/mL) / Elastase inhibition (converted)
T2 construct: gene CELA1; native enzyme from pancreas, lyophilised powder (Sigma-Aldrich); mature form
From the text: spectrophotometric elastase inhibition assay on elastase from porcine pancreas

T2 sequence (P00772 27-266): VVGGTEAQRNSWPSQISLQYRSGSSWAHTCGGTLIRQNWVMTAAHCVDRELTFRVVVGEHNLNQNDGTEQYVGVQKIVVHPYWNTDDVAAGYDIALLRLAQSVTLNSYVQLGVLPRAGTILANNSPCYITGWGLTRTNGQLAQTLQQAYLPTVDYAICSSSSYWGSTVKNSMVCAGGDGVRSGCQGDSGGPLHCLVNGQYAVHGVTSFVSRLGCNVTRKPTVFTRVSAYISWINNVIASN

Structure (SMILES)	IC50 (mg/mL) / MMP-1 inhibition [1] [mg/mL]	IC50 [2] [µM]
CC1(C)CC[C@]2(C(=O)O)CC[C@]3(C)C(=CC[C@@H]4[C@@]5(C)CC[C@H](O)C(C)(C)[C@@H]5CC[C@]43C)[C@@H]2C1 [OA, oleanolic acid]	0.002 ± 0.000 (≈ 4.38 µM)	–
O=C(O[C@@H]1Cc2c(O)cc(O)cc2O[C@@H]1c1cc(O)c(O)c(O)c1)c1cc(O)c(O)c(O)c1 [EGCG, epigallocatechin gallate]	–	2.18
